Assay results published in patent US10294202B2, “Pyrrolidinones as herbicides” (FMC Corporation, priority 2013, dated 2019).

Columns and labels:
[1] = test system: bromegrass, downy; test: Test D pre-/postemergence herbicide test; assay type: in vivo, Bromus tectorum; conditions: for Plant response rating: Bromegrass, Downy, scale 0 to 100; for Plant response rating, Bromegrass, Downy: scale 0 to 100 (0 no effect, 100 complete control)
Method in brief: (§1)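 Visual injury score, 0 (no effect) to 100 (complete control), taken 7–21 d post-treatment against untreated controls. Application was preemergence in silt loam and postemergence at 1- to 4-leaf stage, using a surfactant-containing non-phytotoxic solvent formulation.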

[2] = test system: wheat, spring; test: Test D pre-/postemergence herbicide test; assay type: in vivo, Triticum aestivum; conditions: for Plant response rating: Postemergence, Wheat, Spring, scale 0 to 100; for Plant response rating, Wheat, Spring: Preemergence, scale 0 to 100 (0 no effect, 100 complete control)
Method in brief: as §1

[3] = test system: wheat, winter; test: Test D pre-/postemergence herbicide test; assay type: in vivo, Triticum aestivum; conditions: for Plant response rating: Postemergence, Wheat, Winter, scale 0 to 100; for Plant response rating, Wheat, Winter: Preemergence, scale 0 to 100 (0 no effect, 100 complete control)
Method in brief: as §1

[4] = test system: johnsongrass; test: Test E preemergence herbicide test; assay type: in vivo, Sorghum halepense; parameters: key: 0 = no effect, 100 = complete control
Text: Seeds of plant species selected from corn (Zea mays), soybean (Glycine max), velvetleaf (Abutilon theophrasti), lambsquarters (Chenopodium album), wild poinsettia (Euphorbia heterophylla), pigweed, palmer (palmer pigweed, Amaranthus palmeri), waterhemp (common waterhemp, Amaranthus rudis), surinam grass (Brachiaria decumbens), crabgrass, large (large crabgrass, Digitaria sanguinalis), crabgrass, Brazil (Brazilian crabgrass, Digitaria horizontalis), panicum, fall (fall panicum, Panicum dichotomiflorum), foxtail, giant (giant foxtail, Setaria faberii), foxtail, green (green foxtail, Setaria viridis), goosegrass (Eleusine indica), johnsongrass (Sorghum halepense), ragweed (common ragweed, Ambrosia elatior), barnyardgrass (Echinochloa crus-galli), sandbur (southern sandbur, Cenchrus echinatus), arrowleaf […] rhombifolia), ryegrass, Italian (Italian ryegrass, Lolium multiflorum), dayflower, VA (Virginia dayflower, Commelina virginica), field bindweed (Convolvulus arvensis), morningglory (Ipomoea coccinea), nightshade (eastern black nightshade, Solanum ptycanthum), kochia (Kochia scoparia), nutsedge, yellow (yellow nutsedge, Cyperus esculentus), cocklebur (common cocklebur, Xanthium strumarium), smartweed (ladysthumb smartweed, Polygonum Persicaria) and beggarticks (hairy beggarticks, Bidens pilosa), were planted into a silt loam soil and treated preemergence with test chemicals formulated in a non-phytotoxic solvent mixture which included a surfactant. Treated plants and controls were maintained in a greenhouse for 21 days, after which time all species were compared to controls and visually evaluated. Plant response ratings, summarized in Table E, are based on a scale of 0 to 100 where 0 is no effect and 100 is complete control. A dash (-) response means no test result.

[5] = test system: field violet; test: Test D pre-/postemergence herbicide test; assay type: in vivo, Viola arvensis; conditions: for Plant response rating: Field Violet, scale 0 to 100; for Plant response rating, Field Violet: scale 0 to 100 (0 no effect, 100 complete control)
Method in brief: as §1

[6] = test system: blackgrass; test: Test D pre-/postemergence herbicide test; assay type: in vivo, Alopecurus myosuroides; conditions: for Plant response rating: Blackgrass, scale 0 to 100; for Plant response rating, Blackgrass: scale 0 to 100 (0 no effect, 100 complete control)
Method in brief: as §1

[7] = test system: radish, wild; test: Test D pre-/postemergence herbicide test; assay type: in vivo, Raphanus raphanistrum; conditions: for Plant response rating: Postemergence, Radish, Wild, scale 0 to 100; for Plant response rating, Radish, Wild: Preemergence, scale 0 to 100 (0 no effect, 100 complete control)
Method in brief: as §1

[8] = test system: ryegrass, Italian; test: Test D pre-/postemergence herbicide test; assay type: in vivo, Lolium multiflorum; conditions: for Plant response rating: Postemergence, Ryegrass, Italian, scale 0 to 100; for Plant response rating, Ryegrass, Italian: Preemergence, scale 0 to 100 (0 no effect, 100 complete control)
Method in brief: as §1

O=C1NCC(c2ccc(C(F)(F)F)cc2)C1C(=O)Nc1cccc(F)c1F (stereo not shown) [Compound 80, N-(2,3-difluorophenyl)-2-oxo-4-[4-(trifluoromethyl)phenyl]-3-pyrrolidinecarboxamide]
60: Plant response rating ([7]; 250 g ai/ha)
0: Plant response rating, Bromegrass, Downy ([1]; Preemergence, 31 g ai/ha) | Plant response rating ([2]; 31 g ai/ha) | Plant response rating ([2]; 62 g ai/ha) | Plant response rating ([2]; 125 g ai/ha) | Plant response rating ([2]; 250 g ai/ha) | Plant response rating, Wheat, Spring ([2]; 31 g ai/ha) | Plant response rating ([3]; 31 g ai/ha) | Plant response rating ([3]; 62 g ai/ha) | Plant response rating, Johnsongrass ([4]; 16 g ai/ha) | Plant response rating, Johnsongrass ([4]; 31 g ai/ha) | Plant response rating, Johnsongrass ([4]; 62 g ai/ha) | Plant response rating, Field Violet ([5]; Preemergence, 31 g ai/ha) | Plant response rating ([8]; 31 g ai/ha) | Plant response rating ([8]; 62 g ai/ha) | Plant response rating ([8]; 125 g ai/ha) | Plant response rating ([8]; 250 g ai/ha) | Plant response rating, Ryegrass, Italian ([8]; 31 g ai/ha)
35: Plant response rating ([7]; 125 g ai/ha)
20: Plant response rating ([1]; Postemergence, 125 g ai/ha) | Plant response rating ([1]; Postemergence, 250 g ai/ha) | Plant response rating, Wheat, Spring ([2]; 250 g ai/ha) | Plant response rating ([5]; Postemergence, 62 g ai/ha) | Plant response rating, Field Violet ([5]; Preemergence, 62 g ai/ha) | Plant response rating ([5]; Preemergence, 125 g ai/ha) | Plant response rating ([6]; Preemergence, 125 g ai/ha)
50: Plant response rating ([7]; 31 g ai/ha)
5: Plant response rating, Bromegrass, Downy ([1]; Preemergence, 62 g ai/ha) | Plant response rating ([1]; Preemergence, 125 g ai/ha) | Plant response rating ([3]; 250 g ai/ha) | Plant response rating, Wheat, Winter ([3]; 62 g ai/ha) | Plant response rating, Wheat, Winter ([3]; 31 g ai/ha) | Plant response rating ([6]; Postemergence, 31 g ai/ha) | Plant response rating ([6]; Postemergence, 62 g ai/ha) | Plant response rating ([6]; Postemergence, 125 g ai/ha) | Plant response rating ([6]; Postemergence, 250 g ai/ha) | Plant response rating, Blackgrass ([6]; Preemergence, 31 g ai/ha) | Plant response rating, Ryegrass, Italian ([8]; 62 g ai/ha) | Plant response rating, Ryegrass, Italian ([8]; 125 g ai/ha)
30: Plant response rating, Johnsongrass ([4]; 250 g ai/ha) | Plant response rating, Radish, Wild ([7]; 62 g ai/ha) | Plant response rating, Radish, Wild ([7]; 125 g ai/ha)
15: Plant response rating ([1]; Postemergence, 31 g ai/ha) | Plant response rating ([1]; Postemergence, 62 g ai/ha) | Plant response rating ([5]; Postemergence, 31 g ai/ha) | Plant response rating ([5]; Postemergence, 125 g ai/ha) | Plant response rating, Radish, Wild ([7]; 31 g ai/ha) | Plant response rating, Ryegrass, Italian ([8]; 250 g ai/ha)
25: Plant response rating ([5]; Postemergence, 250 g ai/ha) | Plant response rating ([5]; Preemergence, 250 g ai/ha) | Plant response rating ([6]; Preemergence, 250 g ai/ha)
10: Plant response rating ([1]; Preemergence, 250 g ai/ha) | Plant response rating, Wheat, Spring ([2]; 62 g ai/ha) | Plant response rating, Wheat, Spring ([2]; 125 g ai/ha) | Plant response rating ([3]; 125 g ai/ha) | Plant response rating, Wheat, Winter ([3]; 125 g ai/ha) | Plant response rating, Wheat, Winter ([3]; 250 g ai/ha) | Plant response rating, Johnsongrass ([4]; 125 g ai/ha) | Plant response rating, Blackgrass ([6]; Preemergence, 62 g ai/ha)
70: Plant response rating ([7]; 62 g ai/ha) | Plant response rating, Radish, Wild ([7]; 250 g ai/ha)
